Assay results: patent US20040231558A1, “Water-color ink” (priority 2001, published 2004)

How the values were obtained:
Type in all cases: physicochemical
[1] = Evaluation of light fastness-1 (OD value of printed portion after 100 hours xenon fadeometer); conditions: ink prepared as in Example 1 from the salt named in the row; OD value of printed portion after 100 hours xenon fadeometer
Description: (§1) The prepared ink was filled in an ink cartridge for a piezo-type ink-jet printer EM-930C (manufactured by Seiko Epson). The printing was performed with this printer, and the light fastness was evaluated. Further, the storage stability of the ink was evaluated.
(A)-1 Evaluation of Light Fastness-1
Printing density (OD value) was measured after irradiating a printed portion with light for 100 hours using a xenon fadeometer (manufactured by Suga Shikenki) to evaluate the light fastness.

[2] = Evaluation of light fastness-2 (OD value of printed portion after 400 hours xenon fadeometer); conditions: ink prepared as in Example 1 from the salt named in the row, OD value of printed portion after 400 hours xenon fadeometer
Description: as §1
(A)-2 Evaluation of Light Fastness-2
Printing density (OD value) was measured after irradiating a printed-portion with light for 400 hours using axenon fadeometer (manufactured by Suga Shikenki), and the light fastness was evaluated.

[3] = Evaluation of moisture resistance (image-recorded paper at 40° C. and humidity 85%, visual observation); conditions: image-recorded paper at 40° C. and humidity 85%, visually observed
[4] = Evaluation of storage stability of ink (40° C. for 3 months, insoluble matter and clogging); conditions: recording liquid stored at 40° C. for 3 months; insoluble matter and clogging
Description: as §1
(C) Evaluation of Storage Stability of Ink:
After a recording liquid was stored at 40° C. for 3 months, it was observedwhether or not an insoluble matterwas precipitated, and whether or not clogging occurred after continuous recording with the foregoing printer for a long period of time.

| Compound | (A)-1 light fastness-1 [1] | (A)-2 light fastness-2 [2] | (B) moisture resistance [3] | (C) storage stability [4] | (A)-2 light fastness-2 ([2]; NH(CH2CH=CH2)3 salt form) | (A)-2 light fastness-2 ([2]; Na salt form) |
| --- | --- | --- | --- | --- | --- | --- |
| N#Cc1c(-c2ccccc2)c(N=Nc2cc(C(=O)O)ccc2C(=O)O)c(O)n(CCNC(=O)c2cc(C(=O)O)c(C(=O)NCCn3c(O)c(N=Nc4cc(C(=O)O)ccc4C(=O)O)c(-c4ccccc4)c(C#N)c3=O)cc2C(=O)O)c1=O [Compound 285] | ⊚ | ⊚⊚ | ⊚ | ◯ |  |  |
| N#Cc1c(-c2ccccc2)c(N=Nc2cc(C(=O)O)ccc2C(=O)O)c(O)n(CCCCCCNC(=O)c2cc(C(=O)O)c(C(=O)NCCCCCCn3c(O)c(N=Nc4cc(C(=O)O)ccc4C(=O)O)c(-c4ccccc4)c(C#N)c3=O)cc2C(=O)O)c1=O [Compound 287] | ⊚ | ⊚ | ⊚ | ◯ |  |  |
| Cc1c(N=Nc2cc(C(=O)O)ccc2C(=O)O)c(O)n(CCNC(=O)c2ccc(C(=O)NCCn3c(O)c(N=Nc4cc(C(=O)O)ccc4C(=O)O)c(C)c(C#N)c3=O)c(C(=O)NCCn3c(O)c(N=Nc4cc(C(=O)O)ccc4C(=O)O)c(C)c(C#N)c3=O)c2)c(=O)c1C#N [Compound 305] | ⊚ | ⊚ | ⊚ | Δ |  |  |
| CCc1c(N=Nc2cc(C(=O)O)ccc2C(=O)O)c(O)n(CCNC(=O)c2ccc(C(=O)NCCn3c(O)c(N=Nc4cc(C(=O)O)ccc4C(=O)O)c(CC)c(C#N)c3=O)c(C(=O)NCCn3c(O)c(N=Nc4cc(C(=O)O)ccc4C(=O)O)c(CC)c(C#N)c3=O)c2)c(=O)c1C#N [Compound 308] | ⊚ | ⊚ | ⊚ | Δ |  |  |
| Cc1c(N=Nc2cc(C(=O)O)ccc2C(=O)O)c(O)n(CCCCCCNC(=O)c2cc(C(=O)NCCCCCCn3c(O)c(N=Nc4cc(C(=O)O)ccc4C(=O)O)c(C)c(C#N)c3=O)c(C(=O)NCCn3c(O)c(N=Nc4cc(C(=O)O)ccc4C(=O)O)c(C)c(C#N)c3=O)cc2C(=O)NCCCCCCn2c(O)c(N=Nc3cc(C(=O)O)ccc3C(=O)O)c(C)c(C#N)c2=O)c(=O)c1C#N [Compound 312] | ⊚ | ⊚ | ⊚ | Δ |  |  |
| Cc1c(N=Nc2cc(C(=O)O)ccc2C(=O)O)c(O)n(CCNc2nc(Cl)nc(NCCn3c(O)c(N=Nc4cc(C(=O)O)ccc4C(=O)O)c(C)c(C#N)c3=O)n2)c(=O)c1C#N [Compound No. 245] | ⊚ | ◯ | ⊚ | ◯ |  |  |
| Cc1c(N=Nc2cc(C(=O)O)ccc2C(=O)O)c(O)n(CCCCCCNc2nc(Cl)nc(NCCCCCCn3c(O)c(N=Nc4cc(C(=O)O)ccc4C(=O)O)c(C)c(C#N)c3=O)n2)c(=O)c1C#N [Compound No. 246] | ⊚ | Δ | ⊚ | Δ |  |  |
| Cc1c(N=Nc2cccc(C(=O)O)c2C(=O)O)c(O)n(CC(O)C(O)C(O)C(O)C(O)CO)c(=O)c1C#N (stereo not drawn) [compound 29] | ⊚ | ◯ and Δ | ◯ | ◯ and Δ |  |  |
| Cc1c(N=Nc2cc(C(=O)O)ccc2C(=O)O)c(O)n(CCO)c(=O)c1C#N [compound 37] | ⊚ | ⊚ and Δ | ◯ | ◯ and Δ |  |  |
| Cc1c(N=Nc2cccc(C(=O)O)c2C(=O)O)c(O)n(C(C(=O)O)C(=O)O)c(=O)c1C#N [compound 52] | ⊚ | ⊚ and Δ | Δ and ◯ | ◯ and Δ |  |  |
| Cc1c(N=Nc2cc(C(=O)O)ccc2C(=O)O)c(O)n(CCC(=O)O)c(=O)c1C#N [compound 78] | ⊚ |  | ◯ | ◯ | ◯ | ⊚ |
| Cc1c(N=Nc2cc(C(=O)O)ccc2C(=O)O)c(O)n(Cc2ccc(C(=O)O)c(C(=O)O)c2)c(=O)c1C#N [compound 92] | ⊚ | ⊚⊚ | ⊚ | ◯ |  |  |
| Cc1c(N=Nc2c(C(=O)O)cccc2C(=O)O)c(O)n(CCC(=O)O)c(=O)c1C#N [compound 95] | ⊚ | ⊚ and Δ | Δ and ◯ | ◯ and Δ |  |  |
| Cc1c(N=Nc2cc(C(=O)O)ccc2C(=O)O)c(O)n(CCS(=O)(=O)O)c(=O)c1C#N [compound 136] | ⊚ | ⊚ and Δ and ◯ | Δ and ◯ | ◯ and Δ |  |  |

More lines, now with the values ahead:

| (A)-1 light fastness-1 [1] | (A)-2 light fastness-2 [2] | (B) moisture resistance [3] | (C) storage stability [4] | (A)-2 light fastness-2 ([2]; NH(CH2CH=CH2)3 salt form) | (A)-2 light fastness-2 ([2]; Na salt form) | Compound |
| --- | --- | --- | --- | --- | --- | --- |
| ⊚ | ⊚⊚ | ⊚ | ◯ |  |  | N#Cc1c(C(F)(F)F)c(N=Nc2cc(C(=O)O)ccc2C(=O)O)c(O)n(CCNC(=O)c2cc(C(=O)O)c(C(=O)NCCn3c(O)c(N=Nc4cc(C(=O)O)ccc4C(=O)O)c(C(F)(F)F)c(C#N)c3=O)cc2C(=O)O)c1=O [Compound 291] |
| ⊚ | ⊚⊚ | ⊚ | ◯ |  |  | Cc1c(N=Nc2cccc(C(=O)O)c2C(=O)O)c(O)n(CCNC(=O)c2cc(C(=O)O)c(C(=O)NCCn3c(O)c(N=Nc4cccc(C(=O)O)c4C(=O)O)c(C)c(C#N)c3=O)cc2C(=O)O)c(=O)c1C#N [Compound 293] |
| ⊚ | ◯ | ⊚ | Δ |  |  | Cc1c(N=Nc2cc(C(=O)O)ccc2C(=O)O)c(O)n(CCNc2nc(O)nc(NCCn3c(O)c(N=Nc4cc(C(=O)O)ccc4C(=O)O)c(C)c(C#N)c3=O)n2)c(=O)c1C#N [Compound 294] |
| ⊚ | ⊚ | ⊚ | ◯ |  |  | Cc1c(N=Nc2cc(C(=O)O)ccc2C(=O)O)c(O)n(CCNC(=O)c2cc(C(=O)NCCn3c(O)c(N=Nc4cc(C(=O)O)ccc4C(=O)O)c(C)c(C#N)c3=O)c(C(=O)O)cc2C(=O)O)c(=O)c1C#N [Compound 296] |
| ⊚ | ⊚ | ⊚ | ◯ |  |  | CCc1c(N=Nc2cc(C(=O)O)ccc2C(=O)O)c(O)n(CCNC(=O)c2cc(C(=O)NCCn3c(O)c(N=Nc4cc(C(=O)O)ccc4C(=O)O)c(CC)c(C#N)c3=O)c(C(=O)O)cc2C(=O)O)c(=O)c1C#N [Compound 297] |
| ⊚ | ◯ | ⊚ | ◯ |  |  | Cc1c(N=Nc2cc(C(=O)O)ccc2C(=O)O)c(O)n(CCCCCCNC(=O)c2cc(C(=O)NCCCCCCn3c(O)c(N=Nc4cc(C(=O)O)ccc4C(=O)O)c(C)c(C#N)c3=O)c(C(=O)O)cc2C(=O)O)c(=O)c1C#N [Compound 299] |
| ⊚ | ◯ | ⊚ | Δ |  |  | Cc1c(N=Nc2cc(C(=O)O)ccc2C(=O)O)c(O)n(CCNc2nc(NCCn3c(O)c(N=Nc4cc(C(=O)O)ccc4C(=O)O)c(C)c(C#N)c3=O)nc(SCCC(=O)O)n2)c(=O)c1C#N [Compound 321] |
| ⊚ | ⊚ | ⊚ | Δ |  |  | Cc1c(N=Nc2ccccc2C(=O)O)c(O)n(CCNC(=O)c2cc(C(=O)O)c(C(=O)NCCn3c(O)c(N=Nc4ccccc4C(=O)O)c(C)c(C#N)c3=O)cc2C(=O)O)c(=O)c1C#N [Compound 323] |
| ⊚ | ⊚⊚ | ⊚ | ◯ |  |  | CCc1c(N=Nc2cc(C(=O)O)ccc2C(=O)O)c(O)n(CCn2c(=O)c3cc4c(=O)n(CCn5c(O)c(N=Nc6cc(C(=O)O)ccc6C(=O)O)c(CC)c(C#N)c5=O)c(=O)c4cc3c2=O)c(=O)c1C#N [Compound 335] |
| ⊚ | ⊚⊚ | ⊚ | ◯ |  |  | CC(C)(C)c1c(N=Nc2cc(C(=O)O)ccc2C(=O)O)c(O)n(CCn2c(=O)c3cc4c(=O)n(CCn5c(O)c(N=Nc6cc(C(=O)O)ccc6C(=O)O)c(C(C)(C)C)c(C#N)c5=O)c(=O)c4cc3c2=O)c(=O)c1C#N [Compound 336] |
| ⊚ | ⊚ | ⊚ | ◯ |  |  | Cc1c(N=Nc2cc(C(=O)O)ccc2C(=O)O)c(O)n(CCn2c(=O)c3cc4c(=O)n(CCn5c(O)c(N=Nc6cc(C(=O)O)ccc6C(=O)O)c(C)c(C#N)c5=O)c(=O)c4cc3c2=O)c(=O)c1C#N [Compound 342] |
| ⊚ | ⊚ | ⊚ | ◯ |  |  | Cc1c(N=Nc2cc(C(=O)O)ccc2C(=O)O)c(O)n(CCNC(=O)c2cc(C(=O)O)c(C(=O)NCCn3c(O)c(N=Nc4cc(C(=O)O)ccc4C(=O)O)c(C)c(C#N)c3=O)cc2C(=O)O)c(=O)c1C#N [Compound No. 279] |
